Measured values from US6841552B1, “3a,4,5,9b-tetrahydro-1H-benz[e]indol-2-yl amine-derived neuropeptide Y receptors ligands useful in the treatment of obesity and other disorders” (Ortho-McNeil Pharmaceutical, Inc., priority 1999, dated 2005).
Counter-ions that a name gives are not always drawn.

Key:
[1] = target: T1, human neuropeptide Y5 receptor (Homo sapiens, UniProt Q15761); experiment: NPY5 HTS centrifugation assay: competition with 125I-PYY for binding to membranes of NPY5-transfected HEK293 cells; settings: for inhibition at 0.3 µM / % Inh @ 300 nM: % inhibition of 125I-PYY binding at 300 nM compound; for inhibition at 0.3 µM: read-out: % Inh @ 300 nM; for inhibition at 3 µM / % Inh @ 3 uM: % inhibition of 125I-PYY binding at 3 uM compound
T1 construct: expressed in transfected cells; membranes
T1 sequence (Q15761 1-445): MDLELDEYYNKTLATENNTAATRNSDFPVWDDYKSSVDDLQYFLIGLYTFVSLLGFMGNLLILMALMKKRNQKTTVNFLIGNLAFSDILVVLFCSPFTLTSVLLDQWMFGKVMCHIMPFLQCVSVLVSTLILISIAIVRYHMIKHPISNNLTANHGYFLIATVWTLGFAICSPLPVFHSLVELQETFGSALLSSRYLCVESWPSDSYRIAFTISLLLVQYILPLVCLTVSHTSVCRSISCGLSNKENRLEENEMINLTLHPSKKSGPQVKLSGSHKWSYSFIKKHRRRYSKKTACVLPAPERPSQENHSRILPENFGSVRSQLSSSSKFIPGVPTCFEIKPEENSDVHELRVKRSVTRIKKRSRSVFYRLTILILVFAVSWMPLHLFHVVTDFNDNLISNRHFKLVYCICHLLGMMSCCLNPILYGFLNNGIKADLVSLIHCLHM
Description: NPY5 HTS Centrifugation Assay
The compounds described in this invention were evaluated for binding to the human neuropeptide Y5 receptor.
The human NPY5 receptor cDNA (Genbank Accession number U66275) was inserted into the vector pClneo (Invitrogen) and transfected into human embryonic kidney cells (HEK-293) via calcium phosphate method (Cullen 1987). Stably transfected cells were selected with G-418 (600 μg/mL). Stably transfected cells served as the source for the membranes for the NPY5 receptor binding assay.
NPY5-transfected HEK293 cells were grown to confluence in 150 cm^2 culture dishes. Cells were washed once with phosphate-buffered saline (Gibco Cat# 14040-133). Cells were then incubated in phosphate-buffered saline without calcium and without magnesium, supplemented with 2 mM EDTA. Cells were incubated for 10 minutes at room temperature and the cells were collected by repetitive pipeting. Cells were formed into pellets and then frozen at −80° C. until needed. Frozen pellets were homogenized with a polytron at full speed for 12 seconds in a homogenization buffer (20 mM Tris HCl, 5 mM EDTA, pH 7.4). Homogenates were centrifuged for 5 minutes at 4° C. at 200 g. Supernatants were transferred to corex tubes and centrifuged for 25 minutes at 28,000 g. Pellets were re-suspended in Binding (20 mM HEPES, 10 mM NaCl, 0.22 mM KH2PO4, 1.3 mM CaCl2, 0.8 mM MgSO4, pH 7.4). Membranes were kept on ice until use.
A competition binding assay, known to those skilled in the art, was used in which compounds of formula A compete with ^125I-PYY for binding to cell membranes. In simple terms, the less ^125I-PYY bound to the membranes implies that a compound is a good inhibitor (competitor). Bound ^125I-PYY is determined by centrifugation of membranes, aspirating supernatant, washing away residual ^125I-PYY and subsequently counting the bound sample in a gcounter.
Compounds to be tested were prepared as 10× stocks in binding buffer and added first to assay tubes (RIA vials, Sarstedt). Twenty (20) μL of each 10× compound stock is pipeted into vials and 80 μL of ^125I-PYY (NEN catalog number NEX240), which has been diluted to a concentration of 200 pM in 0.25% BSA in binding buffer, is added to the compound tubes (final concentration of ^125I-PYY is 80 pM). To each tube is added 100 μL of membranes and the mixture is agitated by pipeting 2 times. Samples are incubated for 1 hr at room temperature. Aluminum cast plates (Sarstedt) containing the vials are then centrifuged 10 minutes at 3200 rpm in a Sorvall RT6000. Supernatant is then aspirated. To each vial 400 μL PBS is added and this is then aspirated again. Vials are then put in carrier polypropylene 12×75 tube and counted in gamma counter (Packard). Non-specific binding is determined in the presence of 300 nM NPY. Percent inhibition of ^125I-PYY binding is calculated by subtracting non-specific binding from the test samples (compound (I)), taking these counts and dividing by total binding, and multiplying by 100. Inhibitory concentration values (IC50) of compounds that show appreciable inhibition of ^125I-PYY binding are calculated by obtaining percent inhibition of ^125I-PYY binding values at different concentrations of the test compound, and using a graphing program such as GraphPad Prism (San Diego, Calif.) to calculate the concentration of test compound that inhibits fifty-percent of ^125I-PYY binding (Table 4).

Food-Deprived Rats = experiment: Rodent feeding model: measurement of food intake in food-deprived rats; assay type: in vivo, Male Long-Evans rats; settings: 30 mg/kg i.p.
Description: Measurement of Food Intake in Food-Deprived Rats
Male Long-Evans rats (180-200 grams) are housed individually and are maintained on once-a-day feeding schedule (i.e., 10 a.m. until 4 p.m.) for five days following quarantine to allow the animals to acclimate to feeding on powdered chow (#5002 PMI Certified Rodent Meal) during the allotted time. The chow is made available in a open jar, anchored in the cage by a wire, with a metal follower covering the food to minimize spillage. Water is available ad-libitum.
Animals are fasted for 18 hours prior to testing. At the end of the fasting period, animal are administered either compounds of the invention or vehicle. Vehicle and test compounds are administered either orally (5 mL/kg) 60 minutes prior to the experiment, or 30 minutes prior when given subcutaneously (1 mL/kg) or intraperitoneally (1 mL/kg). Compounds of the invention are administered orally as a suspension in aqueous 0.5% methylcellulose-0.4% Tween 80, or intraperitoneally as a solution or suspension in PEG 200; compound concentrations typically range from 1 mg/kg to 100 mg/kg, preferably from 10-30 mg/kg. Food intake is measured at 2, 4, and 6 hours after administration by weighing the special jar containing the food before the experiment and at the specified times. Upon completion of the experiment, all animals are given a one-week washout period before retesting.
Percent reduction of food consumption is calculated subtracting the grams of food consumed by the treated group from the grams of food consumed by the control group divided by the grams of food consumed by the control group, multiplied by 100. A negative value indicates a reduction in food consumption and a positive value indicates an increase in food consumption. [formula]

Which inhibition at 0.3 µM [1] does the source give for `O=S(=O)(NC[C@H]1CC[C@H](CNC2=N[C@H]3CCc4ccccc4[C@H]3C2)CC1)c1ccccc1` (relative stereo) [Compound 14, N-[[trans-4-[[(cis-3a,4,5,9b-tetrahydro-1 H-benz[e]indol-2-yl)amino]methyl]cyclohexyl]methyl]benzenesulfonamide] here?
Its inhibition at 0.3 µM is 89%.

And the inhibition at 3 µM [1]?
Its inhibition at 3 µM is 93%.

How did the inhibition at 0.3 µM [1] turn out when `O=C(NC1=N[C@H]2CCc3cc(F)ccc3[C@H]2C1)[C@H]1CC[C@H](CNS(=O)(=O)c2ccccc2)CC1` (relative stereo) [Compound 15, trans-4-[[(Phenylsulfonyl)amino]methyl]-N-(cis-3a,4,5,9b-tetrahydro-7-fluoro-1H-benz[e]indol-2-yl)cyclohexanecarboxamide] was run?
Its inhibition at 0.3 µM is 89%.

And the inhibition at 3 µM [1]?
Its inhibition at 3 µM is 100%.

What does the source list for `O=S(=O)(NC[C@H]1CC[C@H](CNC2=N[C@@H]3CCc4cc(O)ccc4[C@@H]3C2)CC1)c1ccccc1` [Compound 10, N-[[trans-4-[[(cis-3a,4,5,9b-ttrahydro-7-hydroxy-1H-benz[e]indol-2-yl)amino]methyl]cyclohexyl]methyl]benzenesulfonamide hydrochloride]?
inhibition at 0.3 µM [1]: 74%; inhibition at 3 µM [1]: 97%; Food Consumption (avg. grams) 0-2 h (Food-Deprived Rats; 0-2 h, 18 h fasted rats): 4.38 g; Food Consumption 0-2 h (% chg.) (Food-Deprived Rats; 0-2 h, change vs vehicle, negative = reduction): (−57%); Food Consumption (avg. grams) 0-4 h (Food-Deprived Rats; 0-4 h, 18 h fasted rats): 6.43 g; Food Consumption 0-4 h (% chg.) (Food-Deprived Rats; 0-4 h, change vs vehicle, negative = reduction): (−53%); Food Consumption (avg. grams) 0-6 h (Food-Deprived Rats; 0-6 h, 18 h fasted rats): 10.75 g; Food Consumption 0-6 h (% chg.) (Food-Deprived Rats; 0-6 h, change vs vehicle, negative = reduction): (−49%); Food Consumption (avg. grams) 2-6 h (Food-Deprived Rats; 2-6 h, 18 h fasted rats): 6.37 g; Food Consumption 2-6 h (% chg.) (Food-Deprived Rats; 2-6 h, change vs vehicle, negative = reduction): (−41%)

Which results are given for `NC1(C(=O)CN2CCC(n3c(=O)[nH]c4ccccc43)CC2)CC2c3ccc(O)cc3CCC2N1` (stereo not drawn) [Compound 21, 2-[[4-(2,3-Dihydro-2-oxo-1H-benzimidazol-1-yl)-1-piperidinyl]acetyl]-[3a,4,5,9b-tetrahydro-7-hydroxy-1H-benzo[e]indol-2-yl]-amine]?
inhibition at 0.3 µM [1]: 20%; inhibition at 3 µM [1]: 78%

Which inhibition at 0.3 µM [1] does the source give for `COc1ccc2c(c1)CC[C@@H]1N=C(NC(=O)[C@H]3CC[C@H](CNS(=O)(=O)c4ccccc4)CC3)C[C@H]21` (relative stereo) [Compound 19, trans-4-[[(Phenylsulfonyl)amino]methyl]-N-(cis-3a,4,5,9b-tetrahydro-7-methoxy-1H-benz[e]indol-2-yl)cyclohexanecarboxamide] here?
The inhibition at 0.3 µM was 80%.

And the inhibition at 3 µM [1]?
The inhibition at 3 µM was 99%.

What does the source list for `O=C(NC1=N[C@H]2CCc3cc(Cl)ccc3[C@H]2C1)[C@H]1CC[C@H](CNS(=O)(=O)c2ccccc2)CC1` (relative stereo) [Compound 17, trans-4-[[(Phenylsulfonyl)amino]methyl]-N-(cis-3a,4,5,9b-tetrahydro-7chloro-1H-benz[e]indol-2-yl)cyclohexanecarboxamide]?
inhibition at 0.3 µM [1]: 86%; inhibition at 3 µM [1]: 107%

For `O=S(=O)(NC[C@H]1CC[C@H](CNC2=N[C@H]3CCc4cc(Cl)ccc4[C@H]3C2)CC1)c1ccccc1` (relative stereo) [Compound 18, N-[[trans-4-[[(cis-3a,4,5,9b-tetrahydro-7-chloro-1H-benz[e]indol-2-yl)amino]methyl]cyclohexyl]methyl]benzenesulfonamide], which inhibition at 0.3 µM [1] is on record?
The inhibition at 0.3 µM was 90%.

And the inhibition at 3 µM [1]?
Its inhibition at 3 µM is 109%.

What does the source list for `O=S(=O)(NC[C@H]1CC[C@H](CNC2=N[C@H]3CCc4cc(F)ccc4[C@H]3C2)CC1)c1ccccc1` (relative stereo) [Compound 16, N-[[trans-4-[[(cis-3a,4,5,9b-tetrahydro-7-fluoro-1H-bnz[ ]indol-2-yl)amino]methyl]cyclohexyl]methyl]benzenesulfonamide]?
% Inh @ 300 nM [1]: 76%; % Inh @ 3 uM [1]: 100%

Which results are given for `O=C(CN1CCC(n2c(=O)[nH]c3ccccc32)CC1)NC1=N[C@@H]2CCc3ccccc3[C@@H]2C1` [Compound 11]?
inhibition at 0.3 µM [1]: 48%; inhibition at 3 µM [1]: 85%

Which results are given for `COc1ccc2c(c1)CCC1N=C(NCCN3CCC(n4c(=O)[nH]c5ccccc54)CC3)CC21` (stereo not drawn) [Compound 12]?
% Inh @ 300 nM [1]: 9%; % Inh @ 3 uM [1]: 53%

For `COc1ccc2c(c1)CCC1NC(N)(C(=O)CN3CCC(n4c(=O)[nH]c5ccccc54)CC3)CC21` (stereo not drawn) [Compound 20, 2-[[4-(2,3-Dihydro-2-oxo-1H-benzimidazol-1-yl)-1-piperidinyl]acetyl]-[3a,4,5,9b-tetrahydro-7-methoxy-1H-benzo[e]indol-2-yl]-amine], which inhibition at 0.3 µM [1] is on record?
The inhibition at 0.3 µM was 0%.

What about the inhibition at 3 µM [1] of the same compound?
Its inhibition at 3 µM is 50%.

Which results are given for `COc1ccc2c(c1)CC[C@@H]1N=C(NC(=O)[C@H]3CC[C@H](CNS(=O)(=O)c4ccccc4)CC3)C[C@H]21` (relative stereo) [Compound 7, trans-4-[[(Phenylsulfonyl)amino]methyl]-N-(cis-3a,4,5,9b-tetrahydro-7-methoxy-1H-benz[e]indol-2-yl)cyclohexanecarboxamide]?
% Inh @ 300 nM ([1]; 0.3 µM): 82%; % Inh @ 3 uM ([1]; 3 µM): 98%

With `O=C(NC1=N[C@H]2CCc3ccccc3[C@H]2C1)[C@H]1CC[C@H](CNS(=O)(=O)c2ccccc2)CC1` (relative stereo) [Compound 13, trans-4-[[(Phenylsulfonyl)amino]methyl]-N-(cis-3a,4,5,9b-tetrahydro-1H-benz[e]indol-2-yl)cyclohexanecarboxamide] as the compound, how does the inhibition at 0.3 µM [1] read?
Its inhibition at 0.3 µM is 80%.

And the inhibition at 3 µM [1]?
Its inhibition at 3 µM is 100%.

With `O=C(NC1=N[C@H]2CCc3cc(O)ccc3[C@H]2C1)[C@H]1CC[C@H](CNS(=O)(=O)c2ccccc2)CC1` (relative stereo) [Compound 9, trans-4-[[(Phenylsulfonyl)amino]methyl]-N-(cis-3a,4,5,9b-tetrahydro-7-hydroxy-1H-benz[e]indol-2-yl)cyclohexanecarboxamide] as the compound, how does the inhibition at 0.3 µM [1] read?
The inhibition at 0.3 µM was 97%.

What about the inhibition at 3 µM [1] of the same compound?
The inhibition at 3 µM was 97%.
